Laboratory results taken from patent US9353120B2, “Tetraaza macrocyclic compound, preparation method thereof and use thereof” (Kyungpook National University Industry-Academic Cooperation …, priority 2009, dated 2016).
“Also recorded” adds a separate entry of the source. Like-named read-outs stand apart in the source and are kept apart here.

Assays:
[1] = Electrochemical studies (cyclic voltammetry); type: physicochemical; details: pH 7.0, scan rate 100 mV/s; for reversibility of redox reaction: cyclic voltammogram
Description: Cyclic voltammetry was conducted using Biologic model SP-150 with three-electrode configuration. The system consisted of a glassy carbon (diameter=3 mm) as a working electrode, an Ag/AgCl (sat. KCl) reference electrode, and a Pt wire counter electrode. Samples were run in 0.1 M aqueous […] adjusted to pH 7.0 with glacial […] at scan rate 100 mV/s. The solutions were deoxygenated for 30 minutes with argon (Ar) prior to use and kept under Ar atmosphere during measurement.

[2] = in vivo
Description: (§1) The animals were sacrificed at 4 hours and 24 hours post-injection. Organs and tissues of interest were removed and weighed.

[3] = Rat biodistribution of 64Cu complexes
Description: as §1

[4] = Kinetic inertness via acid decomplexation (radio-TLC); type: physicochemical; details: 5 M and 10 M HCl, 90° C., radio-TLC at 6, 30 and 60 minutes
Description: Acid decomplexation of ^64Cu-PCB-TE2A was tested by adding 20 μL of ^64Cu-PCB-TE2A (1-2 mM, 52 μCi) to 100 μL of 5 M and 10 M HCl. The solution was heated at 90° C., and samples were analyzed by radio-TLC at 6, 30 and 60 minutes post-addition to 5 M and 10 M HCl (FIGS. 10-15).

In vitro serum stability = type: in vitro ADME, bovine; details: FBS, 37° C., radio-TLC up to 24 hours, then 50° C. for 1 hour
Description: In vitro serum stability of ^64Cu-PCB-TE2A was tested by adding 20 μL of ^64Cu-PCB-TE2A (1-2 mM, 50 μCi) to 0.5 mL of fetal bovine serum (FBS). The solution was incubated at 37° C., and samples were analyzed by radio-TLC at 10, 30 and 60 minutes and at 2, 4, 10 and 24 hours post-addition to FBS (FIGS. 16-22). After 24 hours, the solution was incubated at 50° C. for 1 hour and once again samples were analyzed by radio-TLC (FIG. 23).

in vivo = details: female, nude, mouse, iv, 16 uCi, total radioactivity, mean uptake in the tumor
[5] = buffer
Description: Acid decomplexation studies were performed under pseudo first-order conditions with the same concentration of 3 mmol in 5 M HCl at 90° C. Changes in the absorption maxima with time were monitored using a Shimadzu UV-Vis spectrophotometer (UV-1650PC) in thermostated cells. The decreasing absorbance at the λmax of each spectrum (Cu-PCB-TE2A: 655 nm, Cu-PCB-DO2A: 596 nm) was used to monitor the progress of the decomplexation reaction (FIGS. 24-25). Half-lives were calculated from the slopes of linear ln(absorbance) vs. time plots. Each experiment was repeated two to three times and mean values of half-lives are reported.

U87MG tumors = test: MicroPET imaging; type: in vivo, female nude mice; details: U87MG tumor bearing nude mouse, 1 hour post-injection, 231 μCi
Description: PET scans and image analysis were performed using a microPET R4 rodent model scanner. […] At 1 hour after the injection, the mice were anesthetized with 1-2% isoflurane, positioned porne, and imaged. The images were reconstructed by the 2-dimensional ordered-subsets expectation maximum (OSEM) algorithm. No correction was necessary for attenuation or scatter correction.

[6] = Kidney, 24 hours post-injection
[7] = Muscle, 24 hours post-injection
[8] = Spleen, 24 hours post-injection

Molecule: O=C([O-])CN1CCN2CCCN(CC1)CCN(CC(=O)[O-])CC2.[Cu+2] [Cu-PCB-DO2A]
- reversibility of redox reaction [1]: irreversible redox reaction
- reversibility of redox reaction ([1]; listed as CU-PCB-DO2A): irrev
- Ered(V) vs Ag/AgCl (reduction potential) [1]: −0.69 V

Molecule: O=C(O)CN1CCCN2CCCN(CCCN(CC(=O)O)CC2)CC1 [PCB-TE2A, 4,11-bis(carboxymethyl)-1,4,8,11-tetraazabicyclo[6.6.3]heptadecane]
- Blood (rat biodistribution, cross-bridged and non-cross-bridged chelators) ([2]; Sprague-Dawley, 24 h): 0.012±0.004 % ID/organ
- Kidney (rat biodistribution, cross-bridged and non-cross-bridged chelators) ([2]; Sprague-Dawley, 24 h): 0.064±0.009 % ID/organ
- Liver (rat biodistribution, cross-bridged and non-cross-bridged chelators) ([2]; Sprague-Dawley, 24 h): 0.142±0.004 % ID/organ

Molecule: O=C([O-])CN1CCN2CCCN(CC1)CCN(CC(=O)[O-])CC2.[64Cu+2] [^64Cu-PCB-DO2A]
- clearance from the blood, liver and kidneys ([2]; rat): quickly cleared

Molecule: O=C([O-])CN1CCCN2CCCN(CCCN(CC(=O)[O-])CC2)CC1.[64Cu+2] [^64Cu-PCB-TE2A]
- % ID/g ([3]; Blood, 4 hours post-injection): 0.013 ± 0.003 % ID/g
- % ID/organ ([3]; Blood, 4 hours post-injection): 0.192 ± 0.048 % ID/organ
- % ID/g ([3]; Blood, 24 hours post-injection): 0.006 ± 0.001 % ID/g
- % ID/organ ([3]; Blood, 24 hours post-injection): 0.108 ± 0.029 % ID/organ
- % ID/g ([3]; Bone, 4 hours post-injection): 0.030 ± 0.004 % ID/g
- % ID/organ ([3]; Bone, 4 hours post-injection): 0.656 ± 0.110 % ID/organ
- % ID/g ([3]; Bone, 24 hours post-injection): 0.020 ± 0.005 % ID/g
- % ID/organ ([3]; Bone, 24 hours post-injection): 0.569 ± 0.181 % ID/organ
- % ID/g ([3]; Fat, 4 hours post-injection): 0.060 ± 0.013 % ID/g
- % ID/organ ([3]; Fat, 4 hours post-injection): 1.686 ± 0.322 % ID/organ
- % ID/g ([3]; Fat, 24 hours post-injection): 0.036 ± 0.005 % ID/g
- % ID/organ ([3]; Fat, 24 hours post-injection): 1.328 ± 0.311 % ID/organ
- % ID/g ([3]; Heart, 4 hours post-injection): 0.015 ± 0.001 % ID/g
- % ID/organ ([3]; Heart, 4 hours post-injection): 0.011 ± 0.000 % ID/organ
- % ID/g ([3]; Heart, 24 hours post-injection): 0.007 ± 0.002 % ID/g
- % ID/organ ([3]; Heart, 24 hours post-injection): 0.006 ± 0.001 % ID/organ
- % ID/g ([3]; Kidney, 4 hours post-injection): 0.421 ± 0.019 % ID/g
- % ID/organ ([3]; Kidney, 4 hours post-injection): 0.794 ± 0.056 % ID/organ
- % ID/g [3, 6]: 0.049 ± 0.007 % ID/g
- % ID/organ [3, 6]: 0.112 ± 0.011 % ID/organ
- % ID/g ([3]; Liver, 4 hours post-injection): 0.213 ± 0.032 % ID/g
- % ID/organ ([3]; Liver, 4 hours post-injection): 1.679 ± 0.241 % ID/organ
- % ID/g ([3]; Liver, 24 hours post-injection): 0.015 ± 0.001 % ID/g
- % ID/organ ([3]; Liver, 24 hours post-injection): 0.122 ± 0.013 % ID/organ
- % ID/g ([3]; Lungs, 4 hours post-injection): 0.022 ± 0.003 % ID/g
- % ID/organ ([3]; Lungs, 4 hours post-injection): 0.022 ± 0.003 % ID/organ
- % ID/g ([3]; Lungs, 24 hours post-injection): 0.013 ± 0.002 % ID/g
- % ID/organ ([3]; Lungs, 24 hours post-injection): 0.015 ± 0.003 % ID/organ
- % ID/g ([3]; Muscle, 4 hours post-injection): 0.033 ± 0.006 % ID/g
- % ID/organ ([3]; Muscle, 4 hours post-injection): 2.743 ± 0.525 % ID/organ
- % ID/g [3, 7]: 0.018 ± 0.006 % ID/g
- % ID/organ [3, 7]: 1.987 ± 0.703 % ID/organ
- % ID/g ([3]; Spleen, 4 hours post-injection): 0.025 ± 0.006 % ID/g
- % ID/organ ([3]; Spleen, 4 hours post-injection): 0.013 ± 0.004 % ID/organ
- % ID/g [3, 8]: 0.015 ± 0.009 % ID/g
- % ID/organ [3, 8]: 0.009 ± 0.004 % ID/organ
- % ID/g ([3]; Tail, 4 hours post-injection): 0.046 ± 0.039 % ID/g
- % ID/organ ([3]; Tail, 4 hours post-injection): 0.252 ± 0.213 % ID/organ
- % ID/g ([3]; Tail, 24 hours post-injection): 0.039 ± 0.014 % ID/g
- % ID/organ ([3]; Tail, 24 hours post-injection): 0.276 ± 0.115 % ID/organ
- clearance from the blood, liver and kidneys ([3]; words): lowest amount of ^64Cu remaining in the blood and these tissues
- kinetic inertness towards acid decomplexation [4]: unusually high kinetic inertness towards acid decomplexation
- in vitro serum stability (In vitro serum stability): intact in the FBS for 24 hours without degradation

Molecule: N=C(N)NCCC[C@@H]1NC(=O)[C@H](CCCCNC(=S)Nc2ccc(CC3CN4CCCN(CC(=O)O)CCN(CCCN(CC(=O)O)CC4)C3)cc2)NC(=O)[C@@H](Cc2ccc(O)cc2)NC(=O)[C@H](CC(=O)O)NC(=O)CNC1=O (stereo partly shown) [metal not drawn]
- tissue uptake at 1 h (in vivo): 4.76 %ID/g

Molecule: Cu-PCB-TE2A
- Half-life for acid decomplexation, 5M HCl, 90° C. [5]: 231(2)h
- reversibility of redox reaction [1]: quasi-reversible redox reaction; also recorded: qitasi-rev
- Ered(V) vs Ag/AgCl (reduction potential) [1]: −0.66 V

Molecule: ^64Cu-PCB-TE2A-c(RGDyK)
- radiation uptake in the tumors (microPET) (U87MG tumors): very high in the tumors as compared to other organs
